pIC50, pKi: −log10 of the molar value. Where two headings read alike, the source gives them in different places.
Tests used:
[1] = test system: two component NS2B-NS3 Proteinase of West Nile Virus; conditions: another MLSCN Center; ref xxix, xxx; cited from earlier work
[2] = test system: cathepsin B; conditions: relative to cathepsin L
[3] = test system: bovine aortic endothelial cells; conditions: ref xl; cited from earlier work
[4] = target: cathepsin L (Homo sapiens, UniProt P07711); assay type: biochemical; conditions: stoichiometric amounts of enzyme
Sequence of cathepsin L (P07711 114-333): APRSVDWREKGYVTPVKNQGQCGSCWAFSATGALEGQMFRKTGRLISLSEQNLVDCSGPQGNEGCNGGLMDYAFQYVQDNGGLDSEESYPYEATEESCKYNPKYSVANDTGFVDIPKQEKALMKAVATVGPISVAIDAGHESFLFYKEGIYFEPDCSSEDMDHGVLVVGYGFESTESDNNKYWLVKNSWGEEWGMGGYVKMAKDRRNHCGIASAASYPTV

[5] = test system: human liver cathepsin L; conditions: cited from earlier work
[6] = test system: Plasmodium falciparum; conditions: read-out: IC50, Plasmodium falciparum; cellular model of infection; ref xl; cited from earlier work
[7] = reaction of 15a in the presence of cysteine, LC/MS monitoring for products; assay type: physicochemical
[8] = test system: zebrafish; conditions: cited from earlier work
[9] = test system: Leishmania major; conditions: read-out: IC50, Leishmania major; cellular model of infection; ref xl; cited from earlier work
[10] = test system: Ebola virus; conditions: cited from earlier work
[11] = test system: SARS-CoV; conditions: cited from earlier work

Q: For `COc1ccc(S(=O)(=O)n2nc(OC(=O)c3ccccc3)cc2N)cc1` [CID 655490], which “mode of inhibition of NS2B-NS3 Proteinase” value [1] is on record?
A: slow-binding, reversible, non-competitive inhibitor

Q: Which “Selectivity vs cathepsin B” value ([2]; ref xl) does the source give for `CCc1ccccc1NC(=O)CSC(=O)NNC(=O)[C@H](Cc1c[nH]c2ccccc12)NC(=O)OC(C)(C)C` [Compound 15a] here?
A: 45-fold

Q: What about the “Toxicity (bovine aortic endothelial cells)” value [3] of the same compound?
A: 16 µM

Q: What about the “products of hydrolysis (20 and 21) detected by LC/MS” value [4] of the same compound?
A: No products were detected

Q: And the pIC50 ([5]; cathepsin L, no preincubation stated, ref xl)?
A: 7.25

Q: And the pKi ([5]; cathepsin L, ref xl)?
A: 9.05

Q: What about the koff ([5]; cathepsin L, ref xl) of the same compound?
A: 2.2e-05 s⁻¹

Q: What about the pIC50 ([5]; read-out: Cathepsin L inhibition IC50, analogs of 15a, ref xlii) of the same compound?
A: 7.25

Q: What about the pIC50 ([5]; read-out: IC50(4h preincubation), cathepsin L, 4h preincubation, ref xl) of the same compound?
A: 9.00

Q: What about the “kinetic characterization of inhibition” value ([5]; ref xl) of the same compound?
A: slowly reversible inhibition

Q: What about the pIC50 [6] of the same compound?
A: 4.81

Q: What about the “products detected in the presence of cysteine” value [7] of the same compound?
A: no detectable products

Q: What about the “Toxicity (zebrafish)” value ([8]; ref xl) of the same compound?
A: >100 µM

Q: And the pIC50 [9]?
A: 4.90

Q: With `CC(C)(C)OC(=O)N[C@@H](Cc1c[nH]c2ccccc12)C(=O)NNC(=O)OCC(=O)N1CCCc2ccccc21` [Compound 19] as the compound, how does the “selectivity compared to cathepsin B” value ([2]; ref xxx) read?
A: > 700 fold

Q: And the pIC50 ([5]; read-out: IC50 against cathepsin L with a 4 hour pre-incubation, 4 hour pre-incubation, ref xxx)?
A: 9.40

Q: And the pIC50 ([5]; read-out: IC50 against cathepsin L, no pre-incubation, ref xxx)?
A: 8.15

Q: What about the “cathepsin L activity of analogs with modified C2 carbonyl reactivity” value ([5]; ref xxxviii) of the same compound?
A: as potent as the thiocarbazate

Q: What about the “concentration preventing entry of Ebola virus into cells” value [10] of the same compound?
A: sub-micromolar

Q: What about the “concentration preventing entry of SARS-CoV into cells” value [11] of the same compound?
A: sub-micromolar

Q: And the “toxicity in zebrafish whole organism assay” value ([8]; no toxicity detected up to this concentration, ref xxx)?
A: > 100 µM
